The values that follow come from publication PMC7948422, “Repurposing p97 inhibitors for chemical modulation of the bacterial ClpB–DnaK bichaperone system” (The Journal of Biological Chemistry, 2020).

The target of one assay is monomeric ClpB. Further details: method as in PMID 10982797. The following applies: read-out: Kd of monomeric ClpB toward ATP; cited from earlier work.
Another assay concerns the target T1, wt ClpB (Escherichia coli, UniProt P63284).
T1 construct: made in house
The assay can be described thus: Surface plasmon resonance, immobilized wt ClpB. Type of assay: binding. The note with it: SPR, preliminary; read-out: dissociation constant, control titration of immobilized ClpB. The method, then: ClpB, DnaK, and the NBD of DnaK were extensively dialyzed against the SPR buffer (20-mM Hepes, pH 7.4, 150-mM NaCl, 20-mM MgCl2, 1-mM EDTA, 1-mM DTT). After dialysis, the protein concentration was determined by the Bradford method. The DBeQ–protein interactions were studied using a Biacore T200 instrument (GE Healthcare) at 25 °C. The proteins were diluted to 300 μg/ml in 10-mM sodium acetate buffer (pH 5 for ClpB DnaK or pH 4 for NBD) and immobilized on HC1500M sensor chips (Xantec) by standard amine coupling chemistry as described previously ([70]). A reference flow cell was created by ethyl(dimethylaminopropyl) carbodiimide/N-hydroxysuccinimide activation followed by quenching with 1 M ethanolamine (pH 9.0). Solvent correction curves were obtained at the beginning and end and after every 50 injection cycles by injecting varying DMSO concentrations (4.0, 4.4, 4.6, 4.8, 5.0, 5.2, 5.4, and 5.9% [v/v]). All experiments were performed using a flow rate of 30 μl/min.
Binding isotherms were obtained with the ligand diluted to different concentrations in the SPR running buffer HBSMTD (20-mM Hepes, pH 7.4, 140-mM NaCl, 20-mM MgCl2, 5% (v/v) DMSO, 0.005% (v/v) Tween-20). Replicate injections were performed for all samples, and a buffer-only injection was performed for every 12 injection cycles. To test the structural integrity of ClpB after immobilization on the sensor chips, we performed control titrations with ATPγS and adenosine. The dissociation constants determined from those experiments were ∼20 μM for ATPγS and ∼2 mM for adenosine. […] Moreover, the immobilized ClpB discriminated between a nucleotide analog and a nucleoside, which indicated an adequate structural integrity of ClpB on the sensor chips.
The resulting sensorgrams were analyzed using Biacore T200 Evaluation Software v3.0 according to the following procedure. Solvent correction curves were generated and applied to all data sets, and all sensorgrams were double-referenced by subtracting the most recent buffer blank injection. The signal immediately before injection stop of these corrected sensorgrams was treated as the binding response. GraphPad Prism was used for nonlinear least-squares fitting of the model assuming either noncooperative or cooperative binding of DBeQ to DnaK and ClpB, respectively.
Background: In SPR one partner is held on a chip, and binding of the other changes the refractive index at the surface.

For another assay, the target named is T2, E. coli ClpB (Escherichia coli, UniProt P63284).
T2 construct: made in house
Type of assay: biochemical. The note with it: 100 μM compound, 37 °C; for inhibition of the basal ClpB ATPase: no casein; for inhibition of the ClpB ATPase in the presence of casein: with κ-casein. On the procedure: To determine the ATPase activity, ClpB was diluted to 28 μg/ml (49-nM hexamer) in buffer C (50-mM Tris-HCl, pH 7.4, 20-mM MgCl2, 1-mM EDTA, 0.5-mM tris(2-carboxyethyl)phosphine [TCEP]). In some experiments, the ClpB solution was supplemented with 17.4 μg/ml (10 μM) κ-casein. The ClpB aliquots (18 μl) were mixed with 1 μl of the investigated compounds at different concentrations in 100% DMSO or with DMSO as a control. A sample without ClpB was used as a baseline control. After a 10-min preincubation at 37 or 45 °C, the ATP hydrolysis reaction was initiated by adding 1 μl of 100-mM ATP. The samples were incubated for 60 min (basal ClpB activity in the absence of κ-casein) or 15 min (in the presence of κ-casein) at 37 °C or 30 min at 45 °C in the absence of casein. For the E678Q ClpB variant, the incubation time in the presence of κ-casein was 60 min. After incubation, 15 μl of each sample was mixed with 200 μl of the ammonium molybdate/malachite green reagent ([67]) dispensed into a 96-well plate, followed by an addition of 30 μl of 34% sodium citrate ([68]). The plate was agitated inside a Synergy H1 reader (BioTek, Winooski, VT) for 15 min at room temperature, and the samples’ absorbance was measured at 630 nm. The readouts for ClpB-containing samples were corrected for absorbance of samples without ClpB, to account for nonenzymatic production of inorganic phosphate. A standard curve obtained with different inorganic phosphate concentrations was used to determine the amount of phosphate produced from ATP in the presence of ClpB.

A further assay deals with p97. Further details: method as in PMID 25685910. The note with it: cited from earlier work.

The structures appear in SMILES notation. Entries after “also recorded” stand apart in the source; their conditions may differ. Where only a bound is given, the exact number is not on record here.

T2 sequence (P63284 whole entry): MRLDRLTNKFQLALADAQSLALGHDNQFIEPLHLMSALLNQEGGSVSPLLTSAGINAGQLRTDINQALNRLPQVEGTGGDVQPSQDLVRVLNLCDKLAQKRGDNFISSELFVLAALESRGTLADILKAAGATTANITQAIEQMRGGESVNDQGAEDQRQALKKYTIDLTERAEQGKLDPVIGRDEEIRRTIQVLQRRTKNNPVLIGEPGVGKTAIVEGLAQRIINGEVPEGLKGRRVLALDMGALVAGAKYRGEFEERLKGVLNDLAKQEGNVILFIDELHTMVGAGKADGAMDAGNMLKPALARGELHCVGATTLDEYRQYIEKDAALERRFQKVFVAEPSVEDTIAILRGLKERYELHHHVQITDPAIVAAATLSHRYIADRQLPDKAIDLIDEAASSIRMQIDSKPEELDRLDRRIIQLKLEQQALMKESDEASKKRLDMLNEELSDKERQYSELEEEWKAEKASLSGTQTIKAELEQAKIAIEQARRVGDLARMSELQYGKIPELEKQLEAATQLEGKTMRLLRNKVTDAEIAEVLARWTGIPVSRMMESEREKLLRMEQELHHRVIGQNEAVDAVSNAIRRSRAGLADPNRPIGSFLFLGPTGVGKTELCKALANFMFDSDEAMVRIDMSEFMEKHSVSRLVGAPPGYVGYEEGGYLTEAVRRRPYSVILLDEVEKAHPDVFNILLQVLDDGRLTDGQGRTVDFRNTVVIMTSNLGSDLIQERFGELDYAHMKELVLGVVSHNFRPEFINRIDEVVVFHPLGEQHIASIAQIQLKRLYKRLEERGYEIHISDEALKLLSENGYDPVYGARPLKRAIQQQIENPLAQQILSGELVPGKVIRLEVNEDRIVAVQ
T1 sequence (P63284 whole entry): as above

Regarding `Nc1ncnc2c1ncn2[C@@H]1O[C@H](COP(=O)(O)OP(=O)(O)OP(=O)(O)O)[C@@H](O)[C@H]1O` [ATP], the Kd at monomeric ClpB is more than 1000 µM.

On to `Nc1ncnc2c1ncn2[C@@H]1O[C@H](CO[P@](=O)(O)O[P@](=O)(O)O[P@@](=O)(O)S)[C@@H](O)[C@H]1O` [ATPγS], for which, on wt ClpB, the Kd was approximately 20 µM.

As a reminder, the IC50 is the concentration that inhibits the measured activity by half. `COc1cccc2c(NCc3ccccc3)nc(-n3c(N)nc4ccccc43)nc12` [ML240]: at E. coli ClpB, the “inhibition of the basal ClpB ATPase” value is given as “None of the above compounds, except C3, showed a significant inhibition”; the “inhibition of the ClpB ATPase in the presence of casein” value was “loss of potency toward ClpB; also recorded: only C3 and DBeQ strongly inhibited”. Further, the IC50 with p97 is approximately 0.1 µM.

With `Cc1cc(OCc2nnc(SC3CCCC3)n2-c2cccnc2)ccc1-c1ccc(S(C)(=O)=O)cc1` [NMS-873], on E. coli ClpB, the “inhibition of the basal ClpB ATPase” value is given as “None of the above compounds, except C3, showed a significant inhibition”; the “inhibition of the ClpB ATPase in the presence of casein” value was “only C3 and DBeQ strongly inhibited”. In the assay on p97, the IC50 was approximately 0.02 µM.

Consider `Nc1ncnc2c1ncn2[C@@H]1O[C@H](CO)[C@@H](O)[C@H]1O` [adenosine], for which the Kd at wt ClpB is approximately 2000 µM.
